{"source": "patent US10383955B2", "about": "“Human mast cell lines, preparation and uses” (CENTRE NATIONAL DE LA RECHERCHE SCIENTIFIQUE, priority 2011, dated 2019)", "key": {"[1]": {"test_system": "cells of the ROSA KIT WT line", "assay": "Membrane CD203c expression after stimulation (flow cytometry)", "format": "cell-based, human", "settings": "cells treated with IL-4 + IgE 5 days; anti-IgE 5 or 10 μg/ml or calcium ionophore 1 μmol/l, 1 hour", "method": "In order to know whether the cells of the ROSA KIT WT line can be activated by the IgE-anti-IgE antibody coupling, resulting in degranulation with immediate release of histamine and of β-hexosaminidase associated with a significant increase in membrane CD203c expression and with delayed release of TNF-alpha, cells are treated with IL-4 (20 ng/ml) and IgE (2 μg/ml) (Merck Bioscience) for 5 days and then stimulated with anti-IgE (5 or 10 μg/ml) (Biovalley) or with the calcium ionophore (Cai) (Sigma) (1 μmol/l) for 1 or 6 hours. The 1 hour supernatant and also the pellet are used to assay the histamine and to measure the expression of CD203c at the cell surface, while the TNF-alpha is measured by a specific ELISA method in the supernatant of the cells after 6 hours of stimulation.\nOne ml of cells treated with IL-4 (20 ng/ml) and IgE (2 μg/ml) for 5 days are washed twice with 3 ml of PBS and then again placed in culture medium at a concentration of 1×10^6 cells/ml. These cells are then stimulated with anti-IgE (5 or 10 μg/ml) or with the calcium ionophore (Cai) (1 μmol/l) for 1 hour. The cells are washed with PBS and put back into 100 μl of PBS, 1% FCS in the presence of an antibody directed against human CD203c, coupled to phycoerythrin (PE) (20 μl/l million cells) (Biolegend)."}, "[2]": {"test_system": "cells of the ROSA KIT WT line", "assay": "β-hexosaminidase release after stimulation", "format": "cell-based, human", "settings": "cells treated with IL-4 20 ng/ml and IgE 2 μg/ml; anti-IgE 5 μg/ml or calcium ionophore 1 μmol/l, 1 hour", "method": "The activation of the cells of the ROSA KIT WT line was also measured by determining the released β-hexosaminidase activity. ROSA cells treated with IL-4 (20 ng/ml) and IgE (2 μg/ml) are subsequently activated for 1 hour at 37° C. in the presence of 5% CO2, with the anti-IgE antibody (5 μg/ml) or with the calcium ionophore (Cai) (1 μmol/l).\nThe cells are then centrifuged and the supernatants are recovered and frozen at −80° C. until the time of the assay. The cells are then lysed. The β-hexosaminidase activity is measured in the supernatant and also in the cell pellet as described by Schwartz and Austen, J Invest Dermatol., 74, 349-353, 1980.\nThe hydrolysis of p-nitrophenyl-2-acetamido-2-deoxy-β-D-glucopyranoside (or 4-nitrophenyl-N-acetyl-β-D-glucosaminide) by β-hexosaminidase leads to the release of a chromophore product: p-nitrophenol. The latter is measured by spectrophotometry at 405 nm. • 50 μl of p-nitrophenyl-2-acetamido-2-deoxy-β-D-glucopyranoside (Sigma) are added to 5 μl of supernatant • Incubation for 2 hours at 37° C. with stirring. • Addition of 150 μl of stop solution (7.5 g of glycine in 500 ml of H2O, pH=10.7). Reading at 405 nm."}, "[3]": {"test_system": "ROSA KIT WT, ROSA KIT Delta 417-419 insY and KIT D816V lines", "assay": "Membrane marker expression in the three ROSA lines (flow cytometry)", "format": "cell-based, human", "settings": "IL-4 20 ng/ml", "source_text": "Moreover, the expression of certain membrane markers present on the cells of the ROSA KIT Delta 417-419 insY and KIT D816V lines, optionally present in the presence of SCF, was studied by flow cytometry, this expression being compared with that of the cells of the ROSA KIT WT line. The results obtained (presented in FIG. 12) were the following: • the cells of the ROSA KIT Delta 417-419 insY and KIT D816V lines spontaneously express (in the absence of SCF) more CD38, CD203c and KIT than the cells of the ROSA KIT WT line, this increase in expression being completely abolished in the presence of SCF, • the cells of the KIT D816V line express more CD54 than the cells of the other two lines, whether in the absence or in the presence of SCF, • the cells of the KIT D816V line express more FcεR1 than the cells of the other two lines in the absence of SCF, this phenomenon being abolished by adding SCF, • the cells of the ROSA KIT Delta 417-419 insY and KIT D816V lines express, in the presence of SCF, more CD63 than the cells of the ROSA KIT WT line, this increase in expression being completely abolished in the absence of SCF, • the expression of CD53 and of FcεR1 is increased in the 3 lines by treatment with IL-4 (20 ng/ml), and • the expression of KIT is decreased in the three lines by treatment with IL-4 (20 ng/ml)."}, "[4]": {"test_system": "cells of the ROSA KIT WT line", "assay": "FcεRI and KIT expression after IL-4 treatment (flow cytometry)", "format": "cell-based, human", "settings": "IL-4 20 ng/ml for 5 days", "method": "Since it has been shown in the literature that interleukin-4 (IL-4) induces a decrease in KIT expression and an increase in FcεR1 expression by normal human mast cells, the inventors wanted to verify whether this phenomenon could also be observed on the ROSA KIT WT line. For this, they used the following technique: • 10 ml of cells in culture at approximately 2×10^5 cell/ml are used for each tube. • The cells are centrifuged and the pellet is taken up in 10 ml of new culture medium and then the cells are treated with IL-4 (20 ng/ml) (R&D) for 5 days. • The cells are centrifuged in order to remove the culture medium. • The pellets are taken up in 100 μl of PBS+1% FCS, and incubated for 45 min at +4° C. in the presence of anti-human IgE antibody coupled to FITC (20 μl/l million cells (Merck Bioscience)), or in the presence of anti-human KIT antibody coupled to APC (20 μl/l million cells) (Biolegend). • Two rinses are carried out in 3 ml of PBS, 0.1% FCS, and then the tubes are centrifuged. • The pellets are collected in 300 μl of PBS, 0.1% FCS.\nThe reading is carried out by FACS (BD FACSCalibur)."}, "ROSA KIT D816V line": {"test_system": "ROSA KIT D816V line", "assay": "Proliferation of ROSA KIT D816V line with tyrosine kinase inhibitors (WST-1)", "format": "cell-based, human", "settings": "1 μM/l, 48 hours, without SCF, relative to DMSO 0.1%", "method": "(§1) Finally, the inventors evaluated the effect of two molecules which inhibit tyrosine kinase activity, imatinib and dasatinib (both supplied by Sequoia Research), on the proliferation of the 3 ROSA KIT WT, ROSA KIT D816V and ROSA KIT Delta 417-419 insY lines. To do this, the cells were seeded at a starting concentration of 3×10^5 cells per ml in 96-well plates (100 μl per well) and incubated at 37° C. in an incubator (5% CO2 in air) for 48 hours in the presence of 1 μM/l of imatinib or of dasatinib (in DMSO brought to a final concentration of 0.1%) or in the presence of DMSO alone (0.1% final concentration) in their usual culture medium (containing human SCF at 80 ng/ml for the ROSA KIT WT line but without SCF for the ROSA KIT D816V and ROSA KIT Delta 417-419 insY lines). At the end of this incubation, 10 μl of WST-1 (Roche Applied Science) are added to each well and the cells are incubated for a further 3 hours in an incubator at 37° C. The number of live cells is then measured for each condition by reading the absorbance at 450 nm using a Multiskan MS plate reader (Thermo LabSystems).\n(§2) The results obtained for each line (presented in FIG. 15) are expressed as % of live cells (the condition DMSO alone at 0.1% final concentration being considered to contain 100% of live cells)."}, "ROSA KIT WT line": {"test_system": "ROSA KIT WT line", "assay": "Proliferation of ROSA KIT WT line with tyrosine kinase inhibitors (WST-1)", "format": "cell-based", "settings": "1 μM/l, 48 hours, medium with human SCF 80 ng/ml, relative to DMSO 0.1%", "method": "as §1, §2"}, "[5]": {"test_system": "ROSA KIT Delta 417-419 insY line", "assay": "Proliferation of ROSA KIT Delta 417-419 insY line with tyrosine kinase inhibitors (WST-1)", "format": "cell-based, human", "settings": "1 μM/l, 48 hours, without SCF, relative to DMSO 0.1%", "method": "as §1, §2"}, "[6]": {"test_system": "subclone HMC-1.2 (KIT V560G and D816V)", "settings": "two KIT mutations (V560G and D816V); cited from earlier work"}, "KIT D816V mutation": {"target": "KIT D816V mutation (Homo sapiens, UniProt P10721, D816V)", "sequence (P10721 26-976 D816V)": "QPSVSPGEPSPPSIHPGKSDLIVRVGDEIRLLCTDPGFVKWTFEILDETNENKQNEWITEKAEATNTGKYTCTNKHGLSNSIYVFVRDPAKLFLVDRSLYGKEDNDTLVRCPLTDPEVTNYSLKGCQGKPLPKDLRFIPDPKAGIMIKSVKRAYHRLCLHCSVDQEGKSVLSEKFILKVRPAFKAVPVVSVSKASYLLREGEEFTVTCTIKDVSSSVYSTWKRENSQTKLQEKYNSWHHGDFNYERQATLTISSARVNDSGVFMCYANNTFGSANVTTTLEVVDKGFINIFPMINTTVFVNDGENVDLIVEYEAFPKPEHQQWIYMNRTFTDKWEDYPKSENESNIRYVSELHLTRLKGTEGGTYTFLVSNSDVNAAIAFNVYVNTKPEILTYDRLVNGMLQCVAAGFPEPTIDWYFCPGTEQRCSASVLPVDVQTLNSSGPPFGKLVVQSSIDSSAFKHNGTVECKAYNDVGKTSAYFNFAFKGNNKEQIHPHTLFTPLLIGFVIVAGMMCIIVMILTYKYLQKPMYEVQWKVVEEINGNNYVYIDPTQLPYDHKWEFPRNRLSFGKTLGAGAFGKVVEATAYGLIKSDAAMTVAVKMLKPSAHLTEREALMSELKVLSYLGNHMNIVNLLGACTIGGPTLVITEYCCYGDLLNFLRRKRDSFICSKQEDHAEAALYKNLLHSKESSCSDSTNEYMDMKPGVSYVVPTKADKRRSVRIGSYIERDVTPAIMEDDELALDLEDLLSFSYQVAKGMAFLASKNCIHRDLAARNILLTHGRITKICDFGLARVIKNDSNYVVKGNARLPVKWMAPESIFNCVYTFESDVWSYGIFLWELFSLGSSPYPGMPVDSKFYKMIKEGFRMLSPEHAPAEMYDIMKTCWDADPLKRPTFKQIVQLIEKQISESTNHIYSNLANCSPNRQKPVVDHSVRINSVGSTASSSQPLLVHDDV", "settings": "cited from earlier work"}, "[7]": {"test_system": "HMC-1, subclone HMC-1.1 (KIT V560G)", "settings": "juxtamembrane KIT V560G mutation; cited from earlier work"}, "[8]": {"settings": "in therapy; cited from earlier work"}}, "note": "“Also recorded” adds a separate entry of the source.", "data": [{"molecule": "CNc1ccc2oc(C[C@H]3O[C@@]4(CC[C@H]3C)O[C@H]([C@H](C)C(=O)c3ccc[nH]3)[C@H](C)C[C@H]4C)nc2c1C(=O)O", "note": "[calcium ionophore, calcium ionophore A23187]", "values": [{"measurement": "membrane CD203c expression", "setting": "[1]", "value": "increase"}, {"measurement": "β-hexosaminidase release, of the total enzyme content of the cells", "setting": "[2]", "value": "up to 80%"}]}, {"molecule": "IL-4: interleukin-4 cytokine (R&D)", "values": [{"measurement": "expression of CD53", "setting": "[3]; in the 3 lines", "value": "increased"}, {"measurement": "expression of FcεR1", "setting": "[3]; in the 3 lines", "value": "increased"}, {"measurement": "expression of KIT", "setting": "[3]; in the three lines", "value": "decreased"}, {"measurement": "KIT expression", "setting": "[4]", "value": "decrease"}, {"measurement": "expression of the high-affinity IgE receptor", "setting": "[4]", "value": "increase"}]}, {"molecule": "Cc1ccc(NC(=O)c2ccc(CN3CCN(C)CC3)cc2)cc1Nc1nccc(-c2cccnc2)n1", "note": "[imatinib]", "values": [{"measurement": "inhibition of proliferation (% of live cells)", "setting": "ROSA KIT D816V line", "value": "resistance; also recorded: incapable of inhibiting the proliferation"}, {"measurement": "inhibition of proliferation (% of live cells)", "setting": "ROSA KIT WT line", "value": "sensitive"}, {"measurement": "inhibition of proliferation (% of live cells)", "setting": "[5]", "value": "sensitivity"}, {"measurement": "inhibition of proliferation (% of live cells)", "setting": "[5]; listed as Imatinib", "value": "sensitive"}, {"measurement": "sensitivity of the line", "setting": "[6]", "value": "not"}, {"measurement": "activity on the KIT D816V mutation", "setting": "KIT D816V mutation", "value": "completely inactive"}, {"measurement": "sensitivity of the line", "setting": "[7]", "value": "sensitive"}]}, {"molecule": "Cc1nc(Nc2ncc(C(=O)Nc3c(C)cccc3Cl)s2)cc(N2CCN(CCO)CC2)n1", "note": "[dasatinib]", "values": [{"measurement": "toxicity in humans", "setting": "[8]", "value": "high toxicity"}]}]}
